Results as given in US7691985B2, “Skeletal-targeted radiation to treat bone-associated pathologies” (priority 1999, dated 2010).

Columns and labels:
[1] = Stability of ^166Ho-DOTMP with and without stabilizer: radiochemical purity by ITLC, CEC, HPLC (Example 15); assay type: physicochemical
Protocol: Samples of ^166Ho-DOTMP were prepared according to the procedure in Example 1 using ascorbic acid, 55 mg/mL, as the stabilizer. Identical samples were prepared without ascorbic acid. The solutions were analyzed for radiochemical purity after 1 hour, 6 hours, 10 hours, 24 hours, and 48 hours, using Instant Thin Layer Chromatography (ILTC), Cation Exchange Chromatography (CEC) and High Performance Liquid Chromatography (HPLC).

[2] = Biodistribution study of ^166Ho-DOTMP in rats (Example 16); assay type: in vivo, Sprague Dawley rats; conditions: rat, i.v.
Protocol: Sprague Dawley (S. D.) rats were injected intravenously (inj. i.v.) with a solution of ^166Ho-DOTMP (“Ho-DO”) containing ascorbic acid (asc) as a stabilizer. The animals were sacrificed and organs excised and counted in a radioactive well counter after decay to appropriate levels. Bone (femur) samples were counted and converted to a total bone percent injected dose using a factor of 25 times femur percent.
A second group of Sprague Dawley rats were injected intravenously with a solution of ^166Ho-DOTMP without having the stabilizer. The animals were sacrificed and organs excised and counted in a radioactive well counter after decay to appropriate levels. Bone (femur) samples were counted and converted to a total bone percent injected dose using a factor of 25 times femur percent.
FIG. 2 illustrates the data uptake base on the % injection dose. FIG. 3 illustrates the data uptake base on the % injection dose per gram(mass). FIG. 4 illustrates the data uptake base on the tissue/blood ratio. Abbreviations: Blo=blood; Tai=tail; Lun=lung; Liv=liver; Spl=spleen; Sto=stomach; Kid=kidneys; Int=intestines; Bon=bone; SD=standard deviation.

multiple myeloma [3] = assay: Single patient: 40 Gy ^153Sm-EDTMP, melphalan 200 mg/m^2 (Example 14); assay type: in vivo, human; conditions: present tense
Protocol: The patient, a person with an original diagnosis of multiple myeloma and diagnosed with primary refractory disease, is given a trace dose of ^153Sm-EDTMP, and the 24 hr whole body uptake is calculated. Based on dosimetry calculations a therapeutic dose is designed to deliver 40 Gy to the marrow. After the level of ^153Sm in the patient fell to ≦3.6 mCi, the patient receives a dose of 200 mg/m^2 of melphalan (I.V.). The patient's stem cells are reinfused two days after the melphalan, with G-CSF and antibiotics, as needed.

[4] = ^153Sm-EDTMP 30-50 Gy with melphalan up to 200 mg/m^2, response and urinary tract side effects; assay type: in vivo; conditions: 30-50 Gy with melphalan as high as 200 mg/m^2
[5] = test system: rats inoculated with murine myeloma cells; conditions: used with melphalan, followed by bone marrow transplant; cited from earlier work
multiple myeloma [6] = conditions: 140 mg/m^2 of body-surface area intravenously; cited from earlier work
[7] = 40 Gy to marrow, melphalan 200 mg/m^2, one patient

Question: Which “radiochemical purity, CEC” value ([1]; 1 hr) does the source give for `O=P([O-])(O)CN1CCN(CP(=O)([O-])O)CCN(CP(=O)(O)O)CCN(CP(=O)([O-])O)CC1.[166Ho+3]` [Ho-DO only] here?
Answer: 99.0

Question: And the “radiochemical purity, HPLC” value ([1]; 1 hr)?
Answer: 100

Question: What about the “radiochemical purity, ITLC” value ([1]; 1 hr) of the same compound?
Answer: 99.2

Question: What about the “radiochemical purity, CEC” value ([1]; 6 hrs) of the same compound?
Answer: 97.8

Question: What about the “radiochemical purity, HPLC” value ([1]; 6 hrs) of the same compound?
Answer: 95.4

Question: What about the “radiochemical purity, ITLC” value ([1]; 6 hrs) of the same compound?
Answer: 98.1

Question: What about the “radiochemical purity, CEC” value ([1]; 10 hrs) of the same compound?
Answer: 97.8

Question: What about the “radiochemical purity, HPLC” value ([1]; 10 hrs) of the same compound?
Answer: 94.9

Question: What about the “radiochemical purity, ITLC” value ([1]; 10 hrs) of the same compound?
Answer: 97.5

Question: What about the “radiochemical purity, CEC” value ([1]; 24 hrs) of the same compound?
Answer: 97.2

Question: And the “radiochemical purity, HPLC” value ([1]; 24 hrs)?
Answer: 85.8

Question: And the “radiochemical purity, ITLC” value ([1]; 24 hrs)?
Answer: 97.6

Question: What about the “radiochemical purity, CEC” value ([1]; 48 hrs) of the same compound?
Answer: 97.1

Question: What about the “radiochemical purity, ITLC” value ([1]; 48 hrs) of the same compound?
Answer: 96.5

Question: And the “Percent Injection Dose, Blood” value [2]?
Answer: 0.29 Percent Injection Dose

Question: What about the “Percent Injection Dose, Intestine” value [2] of the same compound?
Answer: 3.81 Percent Injection Dose

Question: What about the “Percent Injection Dose, Kidney” value [2] of the same compound?
Answer: 0.72 Percent Injection Dose

Question: And the “Percent Injection Dose, Liver” value [2]?
Answer: 2.40 Percent Injection Dose

Question: And the “Percent Injection Dose, Lung” value [2]?
Answer: 0.00 Percent Injection Dose

Question: And the “Percent Injection Dose, Spleen” value [2]?
Answer: 0.56 Percent Injection Dose

Question: And the “Percent Injection Dose, Stomach” value [2]?
Answer: 0.20 Percent Injection Dose

Question: And the “Percent Injection Dose, Tail” value [2]?
Answer: 3.21 Percent Injection Dose

Question: What about the “Percent Injection Dose/Gram, Blood” value [2] of the same compound?
Answer: 0.02 Percent Injection Dose/Gram

Question: And the “Percent Injection Dose/Gram, Intestine” value [2]?
Answer: 0.23 Percent Injection Dose/Gram

Question: And the “Percent Injection Dose/Gram, Kidney” value [2]?
Answer: 0.38 Percent Injection Dose/Gram

Question: And the “Percent Injection Dose/Gram, Liver” value [2]?
Answer: 0.31 Percent Injection Dose/Gram

Question: And the “Percent Injection Dose/Gram, Lung” value [2]?
Answer: 0.04 Percent Injection Dose/Gram

Question: And the “Percent Injection Dose/Gram, Spleen” value [2]?
Answer: 1.03 Percent Injection Dose/Gram

Question: And the “Percent Injection Dose/Gram, Stomach” value [2]?
Answer: 0.05 Percent Injection Dose/Gram

Question: And the “Percent Injection Dose/Gram, Tail” value [2]?
Answer: 0.51 Percent Injection Dose/Gram

Question: What about the “Tissue/Blood Ratio, Blood” value [2] of the same compound?
Answer: 1.00

Question: And the “Tissue/Blood Ratio, Bone” value [2]?
Answer: 296.80

Question: What about the “Tissue/Blood Ratio, Intestine” value [2] of the same compound?
Answer: 13.80

Question: And the “Tissue/Blood Ratio, Kidney” value [2]?
Answer: 22.84

Question: What about the “Tissue/Blood Ratio, Liver” value [2] of the same compound?
Answer: 18.90

Question: And the “Tissue/Blood Ratio, Lung” value [2]?
Answer: 2.34

Question: And the “Tissue/Blood Ratio, Spleen” value [2]?
Answer: 62.09

Question: What about the “Tissue/Blood Ratio, Stomach” value [2] of the same compound?
Answer: 3.24

Question: What about the “Tissue/Blood Ratio, Tail” value [2] of the same compound?
Answer: 31.33

Question: What about the “Percent Injection Dose/Gram, Bone” value ([2]; femur) of the same compound?
Answer: 4.84 Percent Injection Dose/Gram

Question: What about the “Percent Injection Dose, Bone” value ([2]; total bone = 25 times femur percent) of the same compound?
Answer: 50.05 Percent Injection Dose

Question: With `O=P([O-])(O)CN(CCN(CP(=O)([O-])O)CP(=O)(O)O)CP(=O)([O-])O.[153Sm+3]` [^153Sm-EDTMP] as the compound, how does the “days post stem cell transplant to neutrophil engraftment (ANC >500)” value (multiple myeloma [3]; [7]) read?
Answer: Fourteen

Question: And the “days post transplant to platelet engraftment (>20,000)” value (multiple myeloma [3]; [7])?
Answer: twenty

Question: And the response (multiple myeloma [3]; five months post treatment, one patient)?
Answer: complete remission

Question: What about the total response rates [4] of the same compound?
Answer: > 90%

Question: And the “urinary tract side effects” value [4]?
Answer: without significant urinary tract side effects

Question: And the survival [5]?
Answer: improves survival

Question: Which “patients with partial or complete remissions” value (multiple myeloma [6]) does the source give for `N[C@@H](Cc1ccc(N(CCCl)CCCl)cc1)C(=O)O` [melphalan, L-phenylalanine, 4-[bis(2-chloroethyl)amino]-] here?
Answer: about 40%
